The text below walks through data of ChEMBL document CHEMBL4665812, “Targeting Her2-insYVMA with Covalent Inhibitors-A Focused Compound Screening and Structure-Based Design Approach” (J Med Chem, 2020).

Values after ≈ are worked out from the molar mass of the structure shown.

Data set [1] can be described thus: Inhibition of HER2-A775_G776insYVMA mutant (unknown origin) expressed in mouse BaF3 cells assessed as reduction in HER2 induced cell viability after 96 hrs by CellTiter-Glo assay. Type of data set: cell-based. Conditions: BaF3, 96 h.
Data set [2] in a line: cells. Type of data set: cell-based. Conditions: Homo sapiens, NCI-H1781, 96 h.
Description: Inhibition of HER2-G776delinsVC mutant (unknown origin) expressed in human H1781 cells assessed as reduction in HER2 induced cell viability after 96 hrs by CellTiter-Glo assay
A short description of data set [3]: Solubility of compound in aqueous buffer at pH 7.4 after 120 mins by turbidometric assay. Type of data set: physicochemical.
The nature of data set [4]: Intrinsic clearance in mouse liver microsomes at 3 uM measured up to 60 mins by LC-MS analysis. The settings on record: read-out: CLH. The format is ADME, Microsome.
A short description of data set [5]: Apparent permeability across apical side to basolateral side in human Caco-2 cells at 5 uM after 2 hrs by transwell assay. Type of data set: ADME, cell-based. The settings on record: read-out: permeability.
Data set [6] is described as follows: Apparent permeability across basolateral side to apical side in human Caco-2 cells at 5 uM after 2 hrs by transwell assay. The format is ADME, cell-based. Conditions: read-out: permeability.
The nature of data set [7]: Stability of compound in human plasma assessed as parent compound remaining at 5 uM measured for 1 hr by LC-MS analysis. Type of data set: ADME, cell-free. Conditions: read-out: Stabilty.
A short description of data set [8]: Stability of compound in mouse plasma assessed as parent compound remaining at 5 uM measured for 1 hr by LC-MS analysis. Type of data set: ADME, cell-free. Conditions: for remaining at 1 h, 5 µM: read-out: Stabilty.
Data set [9] is described as follows: Intrinsic clearance in human liver microsomes at 3 uM measured up to 50 mins by LC-MS analysis. Type of data set: ADME, Microsome. Conditions: read-out: CLH.
Data set [10] in a line: Kinetic solubility of compound in HEPES buffer a pH 7.4 at 500 uM after 90 mins. The settings on record: read-out: Kinetic_solubility. Type of data set: physicochemical.
The target in data set [11] is Receptor tyrosine-protein kinase erbB-2 (Homo sapiens, UniProt P04626). Nature of the data set: Inhibition of C-terminal His6-tagged HER2 (703 to 1029 residues) (unknown origin) expressed in Sf9 insect cells using TK as substrate preincubated for 30 mins followed by substrate addition and measured after 60 mins in presence of XL665-labeled streptavidin by HTRF assay.

A short description of data set [12]: Ratio of apparent permeability across basolateral to apical over apical to basolateral side in human Caco2 cells at 5 uM after 2 hrs by transwell assay. Conditions: Caco-2. The format is ADME, cell-based.

Chain of Receptor tyrosine-protein kinase erbB-2 (P04626 whole entry, the tested form may be a part): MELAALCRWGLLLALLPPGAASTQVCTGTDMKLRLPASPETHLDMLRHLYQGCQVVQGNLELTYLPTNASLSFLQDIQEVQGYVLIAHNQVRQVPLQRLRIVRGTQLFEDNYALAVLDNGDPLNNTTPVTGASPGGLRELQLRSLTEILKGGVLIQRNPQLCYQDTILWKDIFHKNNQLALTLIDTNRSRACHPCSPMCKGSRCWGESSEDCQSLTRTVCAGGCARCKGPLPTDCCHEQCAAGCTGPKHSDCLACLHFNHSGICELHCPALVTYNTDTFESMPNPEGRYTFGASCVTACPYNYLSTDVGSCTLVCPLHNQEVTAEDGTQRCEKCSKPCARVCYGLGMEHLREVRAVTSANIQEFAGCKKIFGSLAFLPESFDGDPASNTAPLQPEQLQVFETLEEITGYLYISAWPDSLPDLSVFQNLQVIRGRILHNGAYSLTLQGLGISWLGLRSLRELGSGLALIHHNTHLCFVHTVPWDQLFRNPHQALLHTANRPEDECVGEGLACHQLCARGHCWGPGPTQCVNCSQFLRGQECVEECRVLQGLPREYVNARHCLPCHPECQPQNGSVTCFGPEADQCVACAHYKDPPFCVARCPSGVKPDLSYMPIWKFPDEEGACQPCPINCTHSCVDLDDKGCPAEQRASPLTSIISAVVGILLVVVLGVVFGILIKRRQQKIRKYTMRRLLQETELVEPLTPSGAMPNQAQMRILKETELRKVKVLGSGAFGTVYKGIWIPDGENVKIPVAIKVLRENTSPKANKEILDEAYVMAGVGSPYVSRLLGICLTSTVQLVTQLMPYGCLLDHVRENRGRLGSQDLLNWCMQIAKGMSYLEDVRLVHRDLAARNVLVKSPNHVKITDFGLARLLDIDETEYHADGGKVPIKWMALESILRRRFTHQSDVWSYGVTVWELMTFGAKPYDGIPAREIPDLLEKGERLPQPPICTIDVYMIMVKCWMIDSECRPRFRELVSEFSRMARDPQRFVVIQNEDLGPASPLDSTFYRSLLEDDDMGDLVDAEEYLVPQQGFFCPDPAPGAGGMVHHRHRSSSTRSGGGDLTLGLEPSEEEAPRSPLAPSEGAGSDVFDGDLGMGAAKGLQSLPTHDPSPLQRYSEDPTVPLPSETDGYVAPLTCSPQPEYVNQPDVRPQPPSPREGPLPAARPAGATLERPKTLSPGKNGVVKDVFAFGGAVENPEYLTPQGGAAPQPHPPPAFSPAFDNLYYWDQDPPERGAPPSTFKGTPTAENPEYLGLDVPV

In the case of `CS(=O)(=O)CCNCc1ccc(-c2ccc3ncnc(Nc4ccc(OCc5cccc(F)c5)c(Cl)c4)c3c2)o1` [LAPATINIB], the 50% inhibitory concentration (IC50) in [1] turned out to be 2760 nM; in data set [2], 3940 nM. Besides, the solubility kinetic at 2 h in data set [3] came out at 3 µM (≈ 1.74 µg/mL). In addition, the microsomal CLint at 3 µM worked out at 73.7 µL/min/mg in [4] and 16.7 µL/min/mg in data set [9]. Also, the Papp A→B at 2 h, 5 µM in data set [5] turned out to be 0.7 ×10⁻⁶ cm/s. The Papp B→A at 2 h, 5 µM in data set [6] came to 0.2 ×10⁻⁶ cm/s. Also, the results for the remaining at 1 h, 5 µM in [7] and in data set [8] were 99.7% and 95.9%, respectively. Also, in data set [10], the solubility kinetic at 1.5 h, 500 µM came out at 4.1 µM (≈ 2.38 µg/mL).
Consider `C=CC(=O)Nc1cccc(-c2c[nH]c3ncnc(Nc4ccc5[nH]c(Cc6ccccc6)nc5c4)c23)c1`, for which the IC50 in [1] worked out at 349 nM; in data set [2] it was 193 nM; in data set [11], 3.5 nM.
The matching figures for `C=CC(=O)Nc1cccc(-c2c[nH]c3ncnc(Nc4ccc(OC(c5ccccc5)c5ccccc5)cc4)c23)c1`: 497 nM, 6390 nM and 26 nM.
The matching figures for `C=CC(=O)Nc1cc(-c2c[nH]c3ncnc(Nc4ccc(CN5C(=O)c6ccccc6C5=O)cc4)c23)ccc1OCCO`: 675 nM, 1610 nM and 15 nM.
Turning to `C=CC(=O)N1CCC(Oc2cc3c(Nc4ccc(Cl)c(Cl)c4F)ncnc3cc2OC)CC1` [POZIOTINIB], the IC50 in data set [1] was less than 14 nM; in data set [2] it was 105 nM; in data set [11], 12 nM. The results for the microsomal CLint at 3 µM in data set [4] and in data set [9] were 35.4 µL/min/mg and 22 µL/min/mg, respectively. The Papp A→B at 2 h, 5 µM in data set [5] amounted to 21.1 ×10⁻⁶ cm/s. The Papp B→A at 2 h, 5 µM in [6] worked out at 7.5 ×10⁻⁶ cm/s. Also, the remaining at 1 h, 5 µM in data set [7] was 86.9%. Moreover, the Stabilty in [8] (1 h, 5 µM) amounted to 120.4%. Besides, in [12], the efflux ratio at 2 h, 5 µM stood at 0.36. Also, in [10], the solubility kinetic at 1.5 h, 500 µM worked out at 39.3 µM (≈ 19.3 µg/mL).
As to `C=CC(=O)Nc1cccc(-c2c(-c3ccc(N4CCN(C)CC4)cc3)[nH]c3ncnc(Nc4ccc(OCc5cccc(F)c5)c(Cl)c4)c23)c1`, the concentration for half-maximal inhibition (IC50) in data set [1] is 2220 nM; in data set [2], more than 30000 nM; in data set [11], 95 nM.
The matching figures for `C=CC(=O)Nc1cc(-c2c[nH]c3ncnc(Nc4ccc(OCc5ccccn5)c(Cl)c4)c23)ccc1OCCO`: 84 nM, 201 nM and 1.9 nM.
On to `C=CC(=O)Nc1cccc(-c2c(-c3ccc(N4CCN(C)CC4)cc3)[nH]c3ncnc(OCC(C)C)c23)c1`, for which the figures for the IC50 in data set [1], in [2] and in [11] were 1120 nM, 2310 nM and 26 nM, respectively.
Take `C=CC(=O)Nc1cccc(-c2c[nH]c3ncnc(Nc4ccc(OCc5cccc(F)c5)c(Cl)c4)c23)c1`: the IC50 in data set [1] came to 135 nM; in data set [2] it was 305 nM; in [11], 14 nM.
Take `C=CC(=O)Nc1cccc(-c2c(-c3ccc(N4CCN(C)CC4)cc3)[nH]c3ncn(C(C)C)c(=O)c23)c1`: the half-inhibitory concentration (IC50) in [1] came out at 3600 nM; in [2], 2050 nM; in [11], 592 nM.
Taken in the same sequence, the figures for `C=CC(=O)Nc1cccc(-c2c(-c3ccc(N4CCN(C)CC4)cc3)[nH]c3ncnc(Nc4ccc(CN5C(=O)c6ccccc6C5=O)cc4)c23)c1` were 638 nM, 490 nM and 55 nM.
In the case of `C=CC(=O)Nc1cccc(-c2c[nH]c3ncnc(Nc4ccc(Cc5ccccc5)cc4)c23)c1`, the IC50 is 754 nM in data set [1], more than 3000 nM in data set [2] and 29 nM in [11].
For the compound `C=CC(=O)Nc1cc(Nc2nccc(-c3cn(C)c4ccccc34)n2)c(OC)cc1N(C)CCN(C)C` [OSIMERTINIB], the results for the half-inhibitory concentration (IC50) in data set [1] and in data set [2] were 1390 nM and 808 nM, respectively.
`C=CC(=O)Nc1cccc(-c2c(-c3ccc(N4CCN(C)CC4)cc3)[nH]c3ncnc(Nc4ccc(OC(=O)C(c5ccccc5)N5Cc6ccccc6C5=O)cc4)c23)c1` (configuration not stated): the IC50 in data set [1] was 390 nM; in [2], 334 nM; in [11], 13 nM.
The matching figures for `C=CC(=O)Nc1cccc(-c2c(-c3ccc(N4CCN(C)CC4)cc3)[nH]c3ncnc(OC)c23)c1`: 910 nM, 357 nM and 50 nM.
For the compound `CC(C)(O)CC(=O)NCCn1ccc2ncnc(Nc3ccc(Oc4cccc(C(F)(F)F)c4)c(Cl)c3)c21` [TAK-285], the IC50 turned out to be 3220 nM in [1] and 3980 nM in data set [2].
On to `C=CC(=O)Nc1cccc(-c2c(-c3ccc(N4CCN(C)CC4)cc3)[nH]c3ncnc(Nc4ccc(NC(=O)C(c5ccccc5)N5Cc6ccccc6C5=O)cc4)c23)c1` (configuration not stated), for which the IC50 came out at 2680 nM in data set [1], 699 nM in data set [2] and 43 nM in data set [11].
`C=CC(=O)Nc1cccc(-c2c(-c3ccc(N4CCN(C)CC4)cc3)[nH]c3ncnc(Nc4ccc(O)cc4)c23)c1`: the results for the IC50 in data set [1], in data set [2] and in data set [11] were 431 nM, 165 nM and 3.9 nM, respectively.
For `C=CC(=O)Nc1cccc(-c2c[nH]c3ncnc(Nc4ccc(Oc5ccccc5)cc4)c23)c1`, the half-inhibitory concentration (IC50) was more than 3000 nM in data set [1], more than 3000 nM in data set [2] and 13 nM in data set [11].
Take `C=CC(=O)Nc1cccc(-c2c(-c3ccc(N4CCN(C)CC4)cc3)[nH]c3ncnc(OCC)c23)c1`: the IC50 in data set [1] stood at 327 nM; in [2] it was 417 nM; in data set [11] it was 14 nM.
For `C=CC(=O)Nc1cccc(-c2c[nH]c3ncnc(Nc4ccc5c(ccn5Cc5ccccc5)c4)c23)c1`, the IC50 was determined as 304 nM in [1], 332 nM in data set [2] and 7.9 nM in data set [11].
In the case of `C=CC(=O)Nc1cccc(-c2c[nH]c3ncnc(Nc4ccc(OCN5C(=O)c6ccccc6C5=O)cc4)c23)c1`, the half-inhibitory concentration (IC50) in data set [1] was 562 nM; in data set [2], 383 nM; in data set [11], 4.5 nM.
The matching figures for `C=CC(=O)Nc1cccc(-c2c(-c3ccc(N4CCN(C)CC4)cc3)[nH]c3ncnc(OC(C)C)c23)c1`: 1440 nM, 1180 nM and 21 nM.
Turning to `C=CC(=O)Nc1cccc(-c2c(-c3ccc(N4CCN(C)CC4)cc3)[nH]c3ncn(CC)c(=O)c23)c1`, the 50% inhibitory concentration (IC50) came out at 2810 nM in data set [1], 2340 nM in data set [2] and 84 nM in data set [11].
Turning to `C=CC(=O)Nc1cc(-c2c[nH]c3ncnc(Nc4ccc5[nH]c(Cc6ccccc6)nc5c4)c23)ccc1OCCO`, the half-maximal inhibitory concentration (IC50) in [1] is more than 3000 nM; in data set [2], more than 3000 nM; in [11], 188 nM.
For the compound `C=CC(=O)Nc1cc(-c2c[nH]c3ncnc(Nc4ccc(OCc5ccccn5)c(Cl)c4)c23)ccc1OCCCO`, the 50% inhibitory concentration (IC50) in data set [1] worked out at 41 nM; in data set [2] it was 271 nM; in [11] it was 9.3 nM.
For the compound `C=CC(=O)Nc1cccc(-c2c(-c3ccc(N4CCN(C)CC4)cc3)[nH]c3ncnc(Nc4ccc(OC(c5ccccc5)c5ccccc5)cc4)c23)c1`, the IC50 was more than 3000 nM in data set [1], 2630 nM in data set [2] and 4.5 nM in [11].
Take `CN(C)C/C=C/C(=O)Nc1cc2c(Nc3ccc(F)c(Cl)c3)ncnc2cc1O[C@H]1CCOC1` [AFATINIB]: the microsomal CLint at 3 µM in data set [4] worked out at 9.4 µL/min/mg; in data set [9], 1.4 µL/min/mg. In addition, the Papp A→B at 2 h, 5 µM in data set [5] was 2.38 ×10⁻⁶ cm/s. For the same compound, in data set [6], the Papp B→A at 2 h, 5 µM was 55.4 ×10⁻⁶ cm/s. Besides, the results for the remaining at 1 h, 5 µM in [7] and in [8] were 96.5% and 101%, respectively.
Consider `C=CC(=O)Nc1cccc(-c2c[nH]c3ncnc(Nc4ccc5c(cnn5Cc5ccccc5)c4)c23)c1`, for which the results for the half-inhibitory concentration (IC50) in [1], in data set [2] and in data set [11] were 53 nM, 126 nM and 12 nM, respectively.
Taken in the same sequence, the figures for `C=CC(=O)Nc1cccc(-c2c(-c3ccc(N4CCN(C)CC4)cc3)[nH]c3ncnc(Nc4ccc(OCN5C(=O)c6ccccc6C5=O)cc4)c23)c1` were 411 nM, 264 nM and 12 nM.
On to `C=CC(=O)Nc1cccc(-c2c(-c3ccc(N4CCN(C)CC4)cc3)[nH]c3ncnc(Nc4ccc(OCc5ccccn5)c(Cl)c4)c23)c1`, for which the results for the IC50 in [1], in data set [2] and in data set [11] were 285 nM, 252 nM and 14 nM, respectively.
As for `COc1cc2ncnc(Nc3ccc(F)c(Cl)c3)c2cc1OCCCN1CCOCC1` [GEFITINIB], the IC50 in data set [1] was found to be 2880 nM.
As to `C=CC(=O)Nc1cccc(-c2c(-c3ccc(N4CCN(C)CC4)cc3)[nH]c3ncn(C)c(=O)c23)c1`, the half-maximal inhibitory concentration (IC50) in [1] came to 3300 nM; in data set [2] it was 1230 nM; in data set [11], 146 nM.
For the compound `C=CC(=O)Nc1cc(-c2c[nH]c3ncnc(Nc4ccc(CN5C(=O)c6ccccc6C5=O)cc4)c23)ccc1OCCN(C)C`, the half-inhibitory concentration (IC50) in data set [1] is 621 nM; in data set [2], 1200 nM; in [11], 23 nM.
For the compound `C=CC(=O)Nc1cc(-c2c[nH]c3ncnc(Nc4ccc(OCc5ccccn5)c(Cl)c4)c23)ccc1OC(C)COC` (configuration not stated), the values for the 50% inhibitory concentration (IC50) in data set [1], in data set [2] and in data set [11] were 259 nM, 549 nM and 14 nM, respectively.
Consider `C=CC(=O)Nc1cccc(-c2c(-c3ccc(N4CCN(C)CC4)cc3)[nH]c3ncn(CC(C)C)c(=O)c23)c1`, for which the IC50 in [1] came to 2420 nM; in data set [2] it was 988 nM; in data set [11], 321 nM.
